This passage reports % of control, IC50 and % of inhibition results from ChEMBL document CHEMBL5465560, “Selectivity Literature for EUbOPEN Chemogenomic Library” (2024).

In general, IC50 refers to the concentration that inhibits the measured activity by half. Lower therefore signals higher potency.

Test [1] addresses Bone morphogenetic protein receptor type-1A (Homo sapiens, UniProt P36894). The settings on record: at 10 µM.
Test [2] addresses Receptor-interacting serine/threonine-protein kinase 2 (Homo sapiens, UniProt O43353). As to the kind of experiment: Selectivity interaction (NanoBRET assay (HEK293T cells)) EUB0000229b RIPK2. Type of test: cell-based, HEK-293T. For orientation: In BRET a luciferase serves as donor, and the signal depends on an acceptor being close.
Test [3] has as its target Mitogen-activated protein kinase kinase kinase 11 (Homo sapiens) (UniProt Q16584). As to the kind of experiment: Selectivity interaction (Kinase panel (Eurofins)) EUB0001564a MAP3K11. The settings on record: at 1 µM.
Test [4] concerns the target T1, Phosphatidylinositol 4,5-bisphosphate 3-kinase catalytic subunit delta isoform (Homo sapiens) (UniProt O00329).
T1 sequence (whole entry): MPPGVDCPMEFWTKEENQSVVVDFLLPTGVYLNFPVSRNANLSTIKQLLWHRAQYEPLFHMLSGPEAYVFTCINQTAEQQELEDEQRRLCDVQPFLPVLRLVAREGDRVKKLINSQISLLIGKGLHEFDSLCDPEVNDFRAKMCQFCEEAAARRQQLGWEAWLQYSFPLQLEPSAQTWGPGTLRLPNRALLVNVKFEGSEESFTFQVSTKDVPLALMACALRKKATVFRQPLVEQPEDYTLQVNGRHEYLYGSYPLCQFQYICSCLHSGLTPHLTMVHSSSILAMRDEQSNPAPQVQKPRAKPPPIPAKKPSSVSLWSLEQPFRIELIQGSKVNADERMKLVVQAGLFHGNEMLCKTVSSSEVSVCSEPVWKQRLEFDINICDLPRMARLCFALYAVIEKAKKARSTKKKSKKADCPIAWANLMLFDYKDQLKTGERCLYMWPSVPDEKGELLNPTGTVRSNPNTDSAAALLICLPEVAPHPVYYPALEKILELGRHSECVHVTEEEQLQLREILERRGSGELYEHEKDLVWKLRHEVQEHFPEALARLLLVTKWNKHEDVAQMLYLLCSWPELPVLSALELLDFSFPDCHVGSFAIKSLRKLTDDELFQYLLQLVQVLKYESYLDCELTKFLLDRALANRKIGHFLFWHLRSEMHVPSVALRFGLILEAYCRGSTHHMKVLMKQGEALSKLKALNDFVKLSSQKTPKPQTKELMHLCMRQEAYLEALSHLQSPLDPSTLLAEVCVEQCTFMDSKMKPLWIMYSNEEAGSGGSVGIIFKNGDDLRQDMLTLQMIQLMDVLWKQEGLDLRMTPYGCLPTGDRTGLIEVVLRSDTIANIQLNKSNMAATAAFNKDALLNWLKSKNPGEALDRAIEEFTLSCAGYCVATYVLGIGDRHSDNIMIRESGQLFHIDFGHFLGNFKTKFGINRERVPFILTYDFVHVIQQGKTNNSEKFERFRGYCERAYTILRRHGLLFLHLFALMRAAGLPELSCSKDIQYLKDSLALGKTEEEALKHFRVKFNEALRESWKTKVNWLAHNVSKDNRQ
Description: Selectivity interaction (ActivX KiNativ screen (kinase selectivity in THP-1 cell lysates)) EUB0000639a PIK3CD. It counts as subcellular. The settings on record: lysate.

The target of test [5] is T2, Serine/threonine-protein kinase greatwall (Homo sapiens) (UniProt Q96GX5).
T2 sequence (whole entry): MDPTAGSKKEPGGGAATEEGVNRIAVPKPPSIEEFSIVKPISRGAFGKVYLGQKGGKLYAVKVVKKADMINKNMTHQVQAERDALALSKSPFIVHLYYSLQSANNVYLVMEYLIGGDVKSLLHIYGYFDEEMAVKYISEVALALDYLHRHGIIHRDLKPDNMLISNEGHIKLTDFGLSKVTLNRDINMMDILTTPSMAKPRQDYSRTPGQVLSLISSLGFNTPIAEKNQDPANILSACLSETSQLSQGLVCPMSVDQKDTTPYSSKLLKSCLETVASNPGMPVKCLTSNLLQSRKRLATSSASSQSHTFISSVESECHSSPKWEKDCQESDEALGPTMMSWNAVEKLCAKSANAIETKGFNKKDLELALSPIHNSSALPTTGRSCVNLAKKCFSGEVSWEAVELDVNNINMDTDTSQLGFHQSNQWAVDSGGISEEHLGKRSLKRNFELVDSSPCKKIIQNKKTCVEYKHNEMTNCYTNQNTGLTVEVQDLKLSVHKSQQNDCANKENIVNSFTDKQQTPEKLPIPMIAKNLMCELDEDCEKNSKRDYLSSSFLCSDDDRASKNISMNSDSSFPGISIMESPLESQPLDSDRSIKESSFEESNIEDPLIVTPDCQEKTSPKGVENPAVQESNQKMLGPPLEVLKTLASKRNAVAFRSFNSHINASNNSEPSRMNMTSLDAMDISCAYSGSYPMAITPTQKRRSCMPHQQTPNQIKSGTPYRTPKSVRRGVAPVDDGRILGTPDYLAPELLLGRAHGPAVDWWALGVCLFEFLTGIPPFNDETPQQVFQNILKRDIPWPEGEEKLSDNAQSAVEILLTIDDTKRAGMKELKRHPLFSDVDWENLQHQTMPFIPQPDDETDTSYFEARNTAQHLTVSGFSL
As to the kind of experiment: Selectivity interaction (ActivX KiNativ screen (kinase selectivity in THP-1 cell lysates)) EUB0000639a MASTL. It counts as subcellular. The settings on record: lysate, at 0.04 µM.

Test [6] concerns the target Serine/threonine-protein kinase PRP4 homolog (Homo sapiens) (UniProt Q13523). As to the kind of experiment: Selectivity interaction (KinomeScan (DiscoverX)) EUB0001049a PRPF4B. Conditions: at 1 µM.
The target in test [7] is Protein-tyrosine kinase 6 (Homo sapiens, UniProt Q13882). As to the kind of experiment: Selectivity interaction (KinomeScan (DiscoverX)) EUB0001049a PTK6. Conditions: at 1 µM.
The target in test [8] is T3, Aurora kinase C (Homo sapiens) (UniProt Q9UQB9).
T3 sequence (whole entry): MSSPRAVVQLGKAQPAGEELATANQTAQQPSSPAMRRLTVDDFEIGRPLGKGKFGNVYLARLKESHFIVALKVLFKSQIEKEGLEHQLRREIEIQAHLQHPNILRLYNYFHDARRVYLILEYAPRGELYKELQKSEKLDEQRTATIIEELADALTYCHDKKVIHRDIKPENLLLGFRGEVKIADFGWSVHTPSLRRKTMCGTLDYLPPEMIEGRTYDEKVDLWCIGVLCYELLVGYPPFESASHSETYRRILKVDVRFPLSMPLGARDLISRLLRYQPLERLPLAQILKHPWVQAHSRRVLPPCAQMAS
As to the kind of experiment: Selectivity interaction (KinomeScan (DiscoverX)) EUB0000618a AURKC. Conditions: at 10 µM.

Receptor-interacting serine/threonine-protein kinase 2, sequence (O43353 whole entry): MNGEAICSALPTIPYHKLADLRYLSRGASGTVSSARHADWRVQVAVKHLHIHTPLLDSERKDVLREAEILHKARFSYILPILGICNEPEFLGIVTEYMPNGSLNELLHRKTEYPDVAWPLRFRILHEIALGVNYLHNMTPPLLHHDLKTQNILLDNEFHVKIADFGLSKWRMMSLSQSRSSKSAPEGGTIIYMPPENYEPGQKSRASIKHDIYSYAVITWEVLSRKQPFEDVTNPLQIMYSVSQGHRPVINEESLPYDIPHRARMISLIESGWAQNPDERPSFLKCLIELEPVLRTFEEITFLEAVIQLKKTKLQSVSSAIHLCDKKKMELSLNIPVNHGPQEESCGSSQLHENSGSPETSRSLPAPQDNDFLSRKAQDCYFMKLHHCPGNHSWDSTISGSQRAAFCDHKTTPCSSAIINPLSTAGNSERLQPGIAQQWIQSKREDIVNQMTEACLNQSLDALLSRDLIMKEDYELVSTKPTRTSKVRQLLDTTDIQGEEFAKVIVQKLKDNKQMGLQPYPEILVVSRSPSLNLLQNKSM
Mitogen-activated protein kinase kinase kinase 11 (Homo sapiens), sequence (Q16584 whole entry, looked up, canonical isoform): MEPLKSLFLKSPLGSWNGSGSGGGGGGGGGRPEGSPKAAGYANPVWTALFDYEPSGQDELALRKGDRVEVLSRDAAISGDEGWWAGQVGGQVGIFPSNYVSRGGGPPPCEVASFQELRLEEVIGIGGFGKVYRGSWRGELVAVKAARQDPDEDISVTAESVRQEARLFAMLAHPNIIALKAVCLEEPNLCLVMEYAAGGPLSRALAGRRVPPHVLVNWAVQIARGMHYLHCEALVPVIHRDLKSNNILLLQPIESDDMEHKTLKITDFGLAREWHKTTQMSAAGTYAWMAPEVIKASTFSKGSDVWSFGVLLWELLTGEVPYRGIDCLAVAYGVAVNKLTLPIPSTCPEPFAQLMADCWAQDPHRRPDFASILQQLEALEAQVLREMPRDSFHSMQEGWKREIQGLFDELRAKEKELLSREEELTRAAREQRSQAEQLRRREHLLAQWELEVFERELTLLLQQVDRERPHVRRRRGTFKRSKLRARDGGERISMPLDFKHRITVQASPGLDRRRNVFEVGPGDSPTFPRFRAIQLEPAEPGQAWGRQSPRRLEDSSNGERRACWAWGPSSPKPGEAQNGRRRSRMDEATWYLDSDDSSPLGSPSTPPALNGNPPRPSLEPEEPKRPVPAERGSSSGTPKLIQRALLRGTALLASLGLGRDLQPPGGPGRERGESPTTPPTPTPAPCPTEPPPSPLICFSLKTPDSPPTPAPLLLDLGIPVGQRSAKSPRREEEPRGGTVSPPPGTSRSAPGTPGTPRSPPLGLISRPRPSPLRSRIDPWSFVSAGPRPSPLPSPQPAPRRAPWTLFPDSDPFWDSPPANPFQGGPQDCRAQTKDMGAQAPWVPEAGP
Protein-tyrosine kinase 6, sequence (Q13882 whole entry, looked up): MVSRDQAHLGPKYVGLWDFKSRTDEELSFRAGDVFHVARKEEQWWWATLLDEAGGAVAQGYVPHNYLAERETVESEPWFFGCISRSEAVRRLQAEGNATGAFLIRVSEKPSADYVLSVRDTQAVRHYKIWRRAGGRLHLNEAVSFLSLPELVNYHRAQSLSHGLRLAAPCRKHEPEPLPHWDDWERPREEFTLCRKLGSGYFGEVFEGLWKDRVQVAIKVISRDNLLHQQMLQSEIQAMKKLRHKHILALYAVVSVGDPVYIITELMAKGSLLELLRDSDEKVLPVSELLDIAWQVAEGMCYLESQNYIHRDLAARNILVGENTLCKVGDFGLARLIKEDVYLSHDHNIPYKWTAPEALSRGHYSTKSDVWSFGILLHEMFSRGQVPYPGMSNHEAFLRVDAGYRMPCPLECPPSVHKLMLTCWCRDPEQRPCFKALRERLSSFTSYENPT
Serine/threonine-protein kinase PRP4 homolog (Homo sapiens), sequence (Q13523 whole entry): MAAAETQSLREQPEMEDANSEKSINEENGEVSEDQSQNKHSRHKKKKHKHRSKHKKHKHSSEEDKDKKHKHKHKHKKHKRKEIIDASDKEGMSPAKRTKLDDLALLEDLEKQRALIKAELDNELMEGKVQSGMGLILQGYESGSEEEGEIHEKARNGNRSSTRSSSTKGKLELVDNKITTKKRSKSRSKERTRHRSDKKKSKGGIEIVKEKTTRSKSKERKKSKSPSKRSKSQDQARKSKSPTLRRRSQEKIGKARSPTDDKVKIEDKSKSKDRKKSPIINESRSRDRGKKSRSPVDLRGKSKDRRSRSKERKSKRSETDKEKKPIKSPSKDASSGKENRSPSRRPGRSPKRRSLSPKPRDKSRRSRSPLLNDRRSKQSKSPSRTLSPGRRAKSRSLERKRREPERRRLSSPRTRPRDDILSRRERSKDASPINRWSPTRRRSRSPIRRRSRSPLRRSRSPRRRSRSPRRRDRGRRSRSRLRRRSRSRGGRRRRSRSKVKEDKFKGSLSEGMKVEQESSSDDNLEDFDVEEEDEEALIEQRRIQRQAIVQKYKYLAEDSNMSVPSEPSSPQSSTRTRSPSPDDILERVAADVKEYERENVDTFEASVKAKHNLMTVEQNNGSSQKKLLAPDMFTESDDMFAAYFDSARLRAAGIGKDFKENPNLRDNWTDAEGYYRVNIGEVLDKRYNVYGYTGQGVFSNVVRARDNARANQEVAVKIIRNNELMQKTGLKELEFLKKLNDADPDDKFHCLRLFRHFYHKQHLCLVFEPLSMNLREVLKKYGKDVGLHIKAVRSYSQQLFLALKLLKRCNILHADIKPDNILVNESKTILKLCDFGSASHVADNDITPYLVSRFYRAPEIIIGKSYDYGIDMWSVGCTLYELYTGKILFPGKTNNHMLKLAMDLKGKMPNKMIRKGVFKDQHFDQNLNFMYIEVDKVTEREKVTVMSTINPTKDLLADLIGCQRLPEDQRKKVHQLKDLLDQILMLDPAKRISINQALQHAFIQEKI
Bone morphogenetic protein receptor type-1A, sequence (P36894 whole entry): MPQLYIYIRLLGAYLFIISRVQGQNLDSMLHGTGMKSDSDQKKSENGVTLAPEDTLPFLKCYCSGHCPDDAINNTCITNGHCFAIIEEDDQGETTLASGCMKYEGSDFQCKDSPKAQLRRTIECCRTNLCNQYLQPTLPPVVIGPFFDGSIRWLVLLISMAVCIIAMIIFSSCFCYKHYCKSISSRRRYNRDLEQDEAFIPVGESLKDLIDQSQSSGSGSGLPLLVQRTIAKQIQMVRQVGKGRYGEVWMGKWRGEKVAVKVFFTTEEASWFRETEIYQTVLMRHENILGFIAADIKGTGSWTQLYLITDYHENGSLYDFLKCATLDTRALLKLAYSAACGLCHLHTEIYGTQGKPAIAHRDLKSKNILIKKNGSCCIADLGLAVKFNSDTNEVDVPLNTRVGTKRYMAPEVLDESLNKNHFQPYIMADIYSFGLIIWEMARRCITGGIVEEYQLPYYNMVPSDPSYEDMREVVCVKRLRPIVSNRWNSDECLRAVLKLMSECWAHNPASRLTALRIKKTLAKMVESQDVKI

With `Cc1cc([C@@H](C)Nc2ccccc2C(=O)O)c2nc(N3CCOCC3)cc(=O)n2c1` [AZD-6482], the % of control in test [1] was determined as 98%.

In test [2], `COc1cc(N(C)c2ccnc3ccc(C(F)(F)F)cc23)cc(OC)c1OC` yielded an IC50 of more than 10 µM.

As for `CC[C@@H](Nc1c(C#N)c(-c2ccc(-c3cccc(C)c3F)cc2)nc2cnccc12)C(=O)O` [BAY-091], the % of inhibition in test [3] stood at 21.1%.

As to `CC[C@@H]1[C@H](F)C(=O)N[C@@H]1COc1nccc2cc(C(N)=O)c(OC)cc12` [ZIMLOVISERTIB], the % of inhibition in test [4] (at 0.01 µM) was -1.5%; in test [4] (at 0.04 µM), -1.9%; in test [4] (at 0.2 µM), -4.2%; in test [4] (at 1 µM), 17.9%; in test [4] (at 5 µM), 22.6%; in test [5], 3.9%.

In the case of `COc1cc(Nc2nc(C)cc(-c3cnn4nc(OC)ccc34)n2)cc(C(F)(F)F)c1`, the % of control in test [6] and in test [7] was 100% each time.

In test [8], `O[C@H]1CC[C@H](Nc2ncc3nc(Nc4c(F)cc(F)cc4F)n([C@H]4CCOC4)c3n2)CC1` had a % of control of 100%.
